Measurements taken from patent publication US6737383B1, “Herbicidal oxadiazolidines” (priority 1999, dated 2004).

Columns and labels:
morningglory = assay: Test B pre/postemergence morningglory; assay type: in vivo, Ipomoea hederacea
How it was run: (§1)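 Herbicidal effect was estimated by eye on a ten-point control scale after plants spent twelve to sixteen days in a greenhouse following soil or foliar treatment. Foliar sprays targeted plants at one to four leaves; all doses were formulated in a non-phytotoxic solvent with surfactant.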

bedstraw = assay: Test B pre/postemergence bedstraw; assay type: in vivo, Galium aparine
How it was run: as §1

sugar beet = assay: Test B pre/postemergence sugar beet; assay type: in vivo, Beta vulgaris
How it was run: as §1

duck salad = assay: Test B flood test duck salad; assay type: in vivo, Heteranthera limosa
How it was run: (§2)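 Each value is a visual injury score relative to controls, with 10 meaning complete control and 0 no effect. Evaluation took place twelve to sixteen days after the 2-leaf-stage plants were treated and kept in the greenhouse.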

bamyardgrass = assay: Test B flood test barnyardgrass; assay type: in vivo, Echinochloa crus-galli
How it was run: as §2

rape = assay: Test B pre/postemergence rape; assay type: in vivo, Brassica napus
How it was run: as §1

soybean = assay: Test B pre/postemergence soybean; assay type: in vivo, Glycine max
How it was run: as §1

smallflower flatsedge = assay: Test B flood test smallflower flatsedge; assay type: in vivo, Cyperus difformis
How it was run: as §2

wheat = assay: Test B pre/postemergence wheat; assay type: in vivo, Triticum aestivum
How it was run: as §1

blackgrass = assay: Test B pre/postemergence blackgrass; assay type: in vivo, Alopecurus myosuroides
How it was run: as §1

pigweed = assay: Test B pre/postemergence pigweed; assay type: in vivo, Amaranthus retroflexus
How it was run: as §1

cocklebur = assay: Test B pre/postemergence cocklebur; assay type: in vivo, Xanthium strumarium
How it was run: as §1

surinam grass = assay: Test B pre/postemergence surinam grass; assay type: in vivo, Brachiaria decumbens
How it was run: as §1

purple nutsedge = assay: Test B pre/postemergence purple nutsedge; assay type: in vivo, Cyperus rotundus
How it was run: as §1

giant foxtail = assay: Test B pre/postemergence giant foxtail; assay type: in vivo, Setaria faberii
How it was run: as §1

wild oat = assay: Test B pre/postemergence wild oat; assay type: in vivo, Avena fatua
How it was run: as §1

[1] = Postemergence, Rate 125 g/ha, scale of 0 to 10 where 0 is no effect and 10 is complete control
[2] = Preemergence, Rate 62 g/ha, scale 0 to 10 (0 no effect, 10 complete control)
[3] = Preemergence, Rate 125 g/ha, 0 is no effect, 10 is complete control
[4] = Preemergence, Rate 250 g/ha, scale 0 to 10, 0 is no effect, 10 is complete control
[5] = Preemergence, Rate 500 g/ha, scale 0 to 10 (0 no effect, 10 complete control)
[6] = Rate 62 g/ha, Postemergence, scale of 0 to 10 where 0 is no effect and 10 is complete control
[7] = Rate 250 g/ha, Postemergence, scale 0 to 10, 0 is no effect, 10 is complete control
[8] = Rate 500 g/ha, Postemergence, scale 0 to 10
[9] = Postemergence (flood test species), Rate 125 g/ha, scale of 0 to 10 where 0 is no effect and 10 is complete control
[10] = Rate 62 g/ha, Postemergence section, flood test species, scale of 0 to 10 where 0 is no effect and 10 is complete control
[11] = Rate 250 g/ha, Postemergence (flood test), scale 0 to 10, 0 is no effect, 10 is complete control
[12] = Rate 500 g/ha, listed under Postemergence (flood test species), scale 0 to 10

CC(C)c1noc(C(C)C)c1-n1c(=O)on(C(=O)N(c2ccc(F)cc2)C(C)C)c1=O [Compound 135]
3: Plant response rating, Soybean (soybean; [7]) | Soybean plant response rating (soybean; [8]) | Redroot pigweed plant response rating (0 to 10 scale) (pigweed; [3]) | B. signalgrass plant response rating (surinam grass; [4])
2: Plant response rating, Bedstraw (bedstraw; [7]) | Soybean plant response rating (soybean; [1]) | Soybean plant response rating (soybean; [6])
4: Bedstraw plant response rating (bedstraw; [5]) | Blackgrass plant response rating (blackgrass; [5]) | Redroot pigweed plant response rating (pigweed; [4]) | Redroot pigweed plant response rating (pigweed; [5]) | B. signalgrass plant response rating (surinam grass; [5])
0: Morningglory plant response rating (morningglory; [2]) | Morningglory plant response rating (0 to 10 scale) (morningglory; [3]) | Morningglory plant response rating (morningglory; [4]) | Morningglory plant response rating (morningglory; [5]) | Morningglory plant response rating (morningglory; [6]) | Bedstraw plant response rating (bedstraw; [1]) | Bedstraw plant response rating (0 to 10 scale) (bedstraw; [3]) | Bedstraw plant response rating (bedstraw; [4]) | Bedstraw plant response rating (bedstraw; [6]) | Sugarbeets plant response rating (sugar beet; [1]) | Sugarbeets plant response rating (sugar beet; [2]) | Sugarbeets plant response rating (0 to 10 scale) (sugar beet; [3]) | Sugarbeets plant response rating (sugar beet; [4]) | Sugarbeets plant response rating (sugar beet; [5]) | Sugarbeets plant response rating (sugar beet; [6]) | Plant response rating, Sugarbeets (sugar beet; [7]) | Sugarbeets plant response rating (sugar beet; [8]) | Ducksalad plant response rating (duck salad; [9]) | Ducksalad plant response rating (duck salad; [10]) | Plant response rating, Ducksalad (duck salad; [11]) | Ducksalad plant response rating (duck salad; [12]) | Barnyardgrass plant response rating (bamyardgrass; [9]) | Barnyardgrass plant response rating (bamyardgrass; [10]) | Plant response rating, Barnyardgrass (bamyardgrass; [11]) | Barnyardgrass plant response rating (bamyardgrass; Rate 500 g/ha, listed under Postemergence (flood test species), scale 0 to 10, 0 no effect, 10 complete control) | Rape plant response rating (rape; [1]) | Rape plant response rating (rape; [2]) | Rape plant response rating (0 to 10 scale) (rape; [3]) | Rape plant response rating (rape; [4]) | Rape plant response rating (rape; [5]) | Rape plant response rating (rape; [6]) | Plant response rating, Rape (rape; [7]) | Rape plant response rating (rape; [8]) | Soybean plant response rating (soybean; [2]) | Soybean plant response rating (0 to 10 scale) (soybean; [3]) | Soybean plant response rating (soybean; [4]) | Soybean plant response rating (soybean; [5]) | S. Flatsedge plant response rating (smallflower flatsedge; [9]) | S. Flatsedge plant response rating (smallflower flatsedge; [10]) | Plant response rating, S. Flatsedge (smallflower flatsedge; [11]) | S. Flatsedge plant response rating (smallflower flatsedge; [12]) | Wheat plant response rating (wheat; [1]) | Wheat plant response rating (wheat; [2]) | Wheat plant response rating (0 to 10 scale) (wheat; [3]) | Wheat plant response rating (wheat; [4]) | Wheat plant response rating (wheat; [5]) | Wheat plant response rating (wheat; [6]) | Plant response rating, Wheat (wheat; [7]) | Wheat plant response rating (wheat; [8]) | Blackgrass plant response rating (blackgrass; [1]) | Blackgrass plant response rating (blackgrass; [2]) | Blackgrass plant response rating (0 to 10 scale) (blackgrass; [3]) | Blackgrass plant response rating (blackgrass; [4]) | Blackgrass plant response rating (blackgrass; [6]) | Plant response rating, Blackgrass (blackgrass; [7]) | Blackgrass plant response rating (blackgrass; [8]) | Redroot pigweed plant response rating (pigweed; [1]) | Redroot pigweed plant response rating (pigweed; [6]) | Plant response rating, Redroot pigweed (pigweed; [7]) | Redroot pigweed plant response rating (pigweed; [8]) | Cocklebur plant response rating (cocklebur; [1]) | Cocklebur plant response rating (cocklebur; [2]) | Cocklebur plant response rating (0 to 10 scale) (cocklebur; [3]) | Cocklebur plant response rating (cocklebur; [4]) | Cocklebur plant response rating (cocklebur; [5]) | Cocklebur plant response rating (cocklebur; [6]) | Plant response rating, Cocklebur (cocklebur; [7]) | Cocklebur plant response rating (cocklebur; [8]) | B. signalgrass plant response rating (surinam grass; [1]) | B. signalgrass plant response rating (surinam grass; [2]) | B. signalgrass plant response rating (0 to 10 scale) (surinam grass; [3]) | B. signalgrass plant response rating (surinam grass; [6]) | Plant response rating, B. signalgrass (surinam grass; [7]) | B. signalgrass plant response rating (surinam grass; Rate 500 g/ha, Postemergence, scale of 0 to 10 where 0 is no effect and 10 is complete control) | Nutsedge plant response rating (purple nutsedge; [1]) | Nutsedge plant response rating (purple nutsedge; [2]) | Nutsedge plant response rating (0 to 10 scale) (purple nutsedge; [3]) | Nutsedge plant response rating (purple nutsedge; [4]) | Nutsedge plant response rating (purple nutsedge; [5]) | Nutsedge plant response rating (purple nutsedge; [6]) | Plant response rating, Nutsedge (purple nutsedge; [7]) | Nutsedge plant response rating (purple nutsedge; [8]) | Giant foxtail plant response rating (giant foxtail; [1]) | Giant foxtail plant response rating (giant foxtail; [2]) | Giant foxtail plant response rating (0 to 10 scale) (giant foxtail; [3]) | Giant foxtail plant response rating (giant foxtail; [4]) | Giant foxtail plant response rating (giant foxtail; [6]) | Plant response rating, Giant foxtail (giant foxtail; [7]) | Giant foxtail plant response rating (giant foxtail; [8]) | Wild oats plant response rating (wild oat; [1]) | Wild oats plant response rating (wild oat; [2]) | Wild oats plant response rating (0 to 10 scale) (wild oat; [3]) | Wild oats plant response rating (wild oat; [4]) | Wild oats plant response rating (wild oat; [5]) | Wild oats plant response rating (wild oat; [6]) | Plant response rating, Wild oats (wild oat; [7]) | Wild oats plant response rating (wild oat; [8])
1: Morningglory plant response rating (morningglory; [1]) | Plant response rating, Morningglory (morningglory; [7]) | Morningglory plant response rating (morningglory; [8])
